Earlier results in patent EP4484428A1, “CUCURBITURIL DERIVATIVES FOR RADIOLABELING, PROCESSES OF PRODUCTION AND USES THEREOF” (Université de Bourgogne, priority 2023, dated 2025).

System: (strept)avidin
Settings: biotin-(strept)avidin pair, association constant

Compound: O=C(O)CCCC[C@@H]1SC[C@@H]2NC(=O)N[C@@H]21 [biotin]
- affinity (K): 10^15 M^-1
